These results are taken from ChEMBL document CHEMBL5046276 (J Med Chem, 2022).

Active and inactive are the calls of the source. The rule behind the calls is not given here. Where only a bound is given, the exact number is not on record here.

A short description of data set [1]: Cytotoxicity against human HepG2 cells incubated for 72 hrs by CCK-8 assay. (Formazan colour is commonly taken as a measure of viable cells.)
A short description of data set [2]: Cytotoxicity against HEK293T cells incubated for 72 hrs by CCK-8 assay. The settings on record: human.
The nature of data set [3]: Selectivity index, ratio of IC50 for cytotoxicity against human HepG2 cells to IC50 for antimalarial activity against asexual blood stage wild-type Plasmodium falciparum 3D7. The format is toxicity, cell-based. The settings on record: read-out: Ratio IC50.
Data set [4] has as its system Plasmodium falciparum. Briefly: Antimalarial activity against asexual blood stage sulfadoxine-pyrimethamine/mefloquine-resistant Plasmodium falcipuram CP286 assessed as parasite growth inhibition incubated for 72 hrs by SYBR Green I staining based fluorescence analysis. The format is functional, organism-based. Particulars: CP286, 72 h.
The nature of data set [5]: Toxicity in BALB/c mouse infected with blood stage Plasmodium yoelii assessed as animal death at 30 to 90 mg/kg, ip qd for 5 days and measured on day 60. It counts as organism-based. The settings on record: in vivo, 1440 h, dose 30-90 mg/kg, time 60 day.
For data set [6], the system named is Plasmodium yoelii. The data set is described as follows: Antimalarial activity against blood stage Plasmodium yoelii infected in BALB/c mouse assessed as parasite recrudescence by measuring parasitemia at 30 mg/kg, ip qd for 5 days and measured for 8 to 16 days. It counts as functional. The settings on record: time 8-16 day.
The nature of data set [7]: Toxicity in BALB/c mouse infected with blood stage Plasmodium yoelii assessed as body weight loss at 30 to 90 mg/kg, ip qd for 5 days and measured upto 60 days. The format is organism-based. Particulars: in vivo, dose 30-90 mg/kg, time <=60 day.
The nature of data set [8]: Toxicity in BALB/c mouse infected with liver stage transgenic Plasmodium berghei ANKA sporozoites transfected with GFP-Luc assessed as animal death at 30 mg/kg, iv measured on day 4 post-administration. The format is organism-based. The settings on record: in vivo, 96 h, time 4 day.
Data set [9] has as its system Plasmodium falciparum. The data set is described as follows: Antimalarial activity against late stage (IV) Plasmodium falciparum NF54 gametocytes transfected with p230p-Luc assessed as reduction in gametocyte viability incubated for 48 hrs by luciferase reporter gene based bioluminescence assay. It counts as functional, organism-based. Particulars: NF54, 48 h. For orientation: In a reporter assay the amount or activity of a reporter protein is the signal.

Data set [10] has as its system Plasmodium falciparum. The data set is described as follows: Inhibition of Plasmodium falcipuram HDAC assessed as effect on parasite histone deacetylation level at 5 to 20 nM incubated for 4 hrs by Western blot analysis. The settings on record: dose 5-20 nM. In general terms: A western blot detects proteins with antibodies after separation by electrophoresis.
The nature of data set [11]: In vivo inhibition of C-terminal glmS fused HDAC1 in Plasmodium falcipuram 3D7 assessed as inhibition of parasite growth incubated for 4 hrs followed by compound washout and replacement with fresh medium with compounds measured after 68 hrs by SYBR Green I staining based fluorescence analysis. It counts as functional, organism-based, Plasmodium falciparum.
Data set [12] in a line: In vivo inhibition of C-terminal TY1 fused HDAC1 in Plasmodium falcipuram 3D7 assessed as inhibition of parasite growth incubated for 4 hrs followed by compound washout and replacement with fresh medium with compounds measured after 68 hrs by SYBR Green I staining based fluorescence analysis. The format is functional, organism-based, Plasmodium falciparum.
Data set [13] has as its target T1, Protein deacetylase HDAC6 (Homo sapiens, UniProt Q9UBN7).
T1 sequence (Q9UBN7 whole entry): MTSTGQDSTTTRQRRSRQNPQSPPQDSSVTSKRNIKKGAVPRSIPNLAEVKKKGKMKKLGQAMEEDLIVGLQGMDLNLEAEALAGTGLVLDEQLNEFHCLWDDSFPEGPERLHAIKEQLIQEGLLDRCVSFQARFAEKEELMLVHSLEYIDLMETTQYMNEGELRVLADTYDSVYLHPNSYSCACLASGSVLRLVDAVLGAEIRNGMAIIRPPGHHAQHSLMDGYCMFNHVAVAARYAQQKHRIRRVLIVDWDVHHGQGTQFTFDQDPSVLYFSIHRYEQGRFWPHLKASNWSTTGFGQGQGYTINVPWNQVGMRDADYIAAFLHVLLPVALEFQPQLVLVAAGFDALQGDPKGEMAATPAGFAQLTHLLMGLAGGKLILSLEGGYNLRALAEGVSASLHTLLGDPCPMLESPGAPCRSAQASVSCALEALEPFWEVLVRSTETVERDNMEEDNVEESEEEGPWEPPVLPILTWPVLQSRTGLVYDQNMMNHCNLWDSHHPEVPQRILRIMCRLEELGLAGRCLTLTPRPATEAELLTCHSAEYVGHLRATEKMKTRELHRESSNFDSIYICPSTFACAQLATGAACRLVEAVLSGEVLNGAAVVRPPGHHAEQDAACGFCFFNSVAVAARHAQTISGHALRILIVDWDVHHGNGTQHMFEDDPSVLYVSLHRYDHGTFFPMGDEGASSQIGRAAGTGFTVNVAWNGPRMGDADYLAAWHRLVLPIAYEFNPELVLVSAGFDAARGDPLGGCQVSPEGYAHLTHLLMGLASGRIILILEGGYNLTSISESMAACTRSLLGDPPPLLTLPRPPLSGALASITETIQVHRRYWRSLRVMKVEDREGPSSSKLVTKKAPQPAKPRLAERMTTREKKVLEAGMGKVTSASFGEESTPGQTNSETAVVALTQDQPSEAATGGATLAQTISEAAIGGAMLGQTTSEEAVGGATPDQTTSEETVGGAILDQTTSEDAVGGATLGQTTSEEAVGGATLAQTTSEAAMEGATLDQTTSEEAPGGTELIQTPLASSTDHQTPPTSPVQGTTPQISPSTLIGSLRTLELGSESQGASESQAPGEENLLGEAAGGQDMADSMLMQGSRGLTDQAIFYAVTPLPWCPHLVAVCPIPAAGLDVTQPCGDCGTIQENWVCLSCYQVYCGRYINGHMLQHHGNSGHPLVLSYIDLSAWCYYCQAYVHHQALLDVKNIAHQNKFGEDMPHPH
The data set is described as follows: Inhibition of recombinant human full length N-terminal GST tagged HDAC6 (1 to 1215 residues) expressed in baculovirus-infected Sf9 cells using Ac-peptide as substrate incubated for 4 hrs.

The nature of data set [14]: Apparent elimination half life in BALB/c mouse at 5 mg/kg, ip measured after upto 24 hrs by LC-MS/MS analysis. It counts as ADME, organism-based. Particulars: in vivo, read-out: betat1/2(app) (converted).
Data set [15] in a line: Apparent volume of distribution in BALB/c mouse at 5 mg/kg, ip measured after upto 24 hrs by LC-MS/MS analysis. Particulars: in vivo, read-out: Vz/F. It counts as ADME, organism-based.
Data set [16] can be described thus: Selectivity index, ratio of IC50 for cytotoxicity against HEK293T cells to IC50 for antimalarial activity against asexual blood stage wild-type Plasmodium falciparum 3D7. It counts as toxicity, cell-based. The settings on record: human, read-out: Ratio IC50.
The target in data set [17] is Histone deacetylase 1 (Homo sapiens, UniProt Q13547). The data set is described as follows: Potency index, ratio of test compound IC50 to Quisinostat IC50 for inhibition of recombinant human full length C-terminal His/FLAG tagged HDAC1 (1 to 482 residues) expressed in baculovirus-infected Sf9 cells using Ac-peptide as substrate incubated for 4 hrs.
Histone deacetylase 1, sequence (Q13547 whole entry, the tested form may be a part): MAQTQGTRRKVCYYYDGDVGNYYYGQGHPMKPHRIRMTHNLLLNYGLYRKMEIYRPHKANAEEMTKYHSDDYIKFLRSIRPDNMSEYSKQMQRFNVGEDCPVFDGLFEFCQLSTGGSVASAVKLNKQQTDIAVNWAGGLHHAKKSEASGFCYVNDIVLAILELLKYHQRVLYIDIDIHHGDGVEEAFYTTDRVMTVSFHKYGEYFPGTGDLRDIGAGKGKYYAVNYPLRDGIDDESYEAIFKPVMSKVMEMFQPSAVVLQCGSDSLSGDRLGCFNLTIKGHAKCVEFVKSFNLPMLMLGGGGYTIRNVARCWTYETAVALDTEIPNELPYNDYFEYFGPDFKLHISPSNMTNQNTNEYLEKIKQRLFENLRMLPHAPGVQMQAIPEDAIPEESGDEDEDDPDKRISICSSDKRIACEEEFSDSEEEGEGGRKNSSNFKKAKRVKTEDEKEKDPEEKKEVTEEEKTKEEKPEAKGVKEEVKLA
Data set [18] is described as follows: Metabolic stability in human liver microsomes assessed as half life at […] incubated for 45 mins in presence of NADPH by LC/MS analysis. It counts as ADME, Microsome.
In data set [19] the target is T2, Protein deacetylase HDAC6 (Homo sapiens) (UniProt Q9UBN7).
T2 sequence (whole entry): T1 sequence (Q9UBN7 whole entry)
Briefly: Potency index, ratio of test compound IC50 to Quisinostat IC50 for inhibition of recombinant human full length N-terminal GST tagged HDAC6 (1 to 1215 residues) expressed in baculovirus-infected Sf9 cells using Ac-peptide as substrate incubated for 4 hrs.

Usually IC50 stands for the midpoint of a concentration-inhibition curve. In the case of `Cl.Cn1cc(CN2CC3(CCN(c4ncc(C(=O)NO)cn4)C3)C2)c2ccc(C#N)cc21`, the IC50 at 72 h was determined as 1020 nM in data set [1] and 1210 nM in [2]. Besides, the selectivity ratio in [3] is 810; in data set [16], 960. Further, the IC50 in [4] was determined as 5.85 nM; in data set [9], 12.4 nM; in [11], 16.8 nM; in data set [12] it was 82.5 nM; in [13], 85.5 nM. Also, the Activity entry in [5] is “Non-Toxic”; in [6], 0.02%; in data set [7], “Non-Toxic”; in [8], “Non-Toxic”. Moreover, the outcome in data set [10] was Active. For the same compound, the half-life in data set [14] was 54.6 min; in data set [18] it was above 120 min. The Vd/F in data set [15] was 10.2 L/kg. The Ratio IC50 in data set [17] and in data set [19] was 3 throughout.
